We go through 28 compounds from US11180474B2 (BRISTOL-MYERS SQUIBB COMPANY, priority 2016, dated 2021).

The experiment addresses T1, human TLR7 (Homo sapiens, UniProt Q9NYK1).
T1 construct: host or cells: HEK-Blue cells
T1 sequence (Q9NYK1 27-1049): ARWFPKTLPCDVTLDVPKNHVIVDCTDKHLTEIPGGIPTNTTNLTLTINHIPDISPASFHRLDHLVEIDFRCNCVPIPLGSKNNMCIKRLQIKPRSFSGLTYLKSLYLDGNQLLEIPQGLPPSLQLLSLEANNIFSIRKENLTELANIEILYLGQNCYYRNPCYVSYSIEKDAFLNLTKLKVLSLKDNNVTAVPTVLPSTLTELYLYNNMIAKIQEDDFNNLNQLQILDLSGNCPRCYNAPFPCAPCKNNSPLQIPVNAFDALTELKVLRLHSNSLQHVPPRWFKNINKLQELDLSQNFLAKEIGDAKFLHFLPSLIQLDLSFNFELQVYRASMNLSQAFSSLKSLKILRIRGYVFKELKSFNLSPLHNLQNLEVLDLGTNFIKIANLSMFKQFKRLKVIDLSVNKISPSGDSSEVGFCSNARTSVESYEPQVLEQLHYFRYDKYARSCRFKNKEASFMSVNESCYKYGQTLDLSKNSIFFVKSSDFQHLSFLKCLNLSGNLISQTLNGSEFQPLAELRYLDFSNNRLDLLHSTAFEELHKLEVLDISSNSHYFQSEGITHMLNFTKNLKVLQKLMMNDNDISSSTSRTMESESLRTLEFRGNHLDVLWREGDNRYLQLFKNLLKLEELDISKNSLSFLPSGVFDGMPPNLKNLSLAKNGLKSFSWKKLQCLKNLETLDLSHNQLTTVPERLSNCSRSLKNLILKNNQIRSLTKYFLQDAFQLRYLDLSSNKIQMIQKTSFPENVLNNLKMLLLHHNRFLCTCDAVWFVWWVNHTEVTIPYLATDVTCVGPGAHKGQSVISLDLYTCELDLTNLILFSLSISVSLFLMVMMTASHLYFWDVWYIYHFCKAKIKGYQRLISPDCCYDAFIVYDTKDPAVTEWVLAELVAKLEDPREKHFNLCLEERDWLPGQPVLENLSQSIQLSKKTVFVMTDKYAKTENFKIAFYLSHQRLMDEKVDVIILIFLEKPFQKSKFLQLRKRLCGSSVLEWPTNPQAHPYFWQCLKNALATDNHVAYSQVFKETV
Briefly: TLR7 inhibition reporter assay (HEK-Blue cells, SEAP reporter, gardiquimod stimulation). Type of experiment: cell-based. Particulars: HEK-Blue cells overexpressing human TLR7, gardiquimod 7.5 μM. The method, boiled down:
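Cells (15000/well for TLR7, 20,000 for TLR8) were treated with compounds over 0.05 nM-50 μM final. After 22 h at 37° C, 5% CO2, SEAP was measured with HEK-Blue Detection reagent; percent inhibition was taken as reduction of agonist-plus-DMSO signal relative to a known inhibitor.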
A word on the IC50: it is the midpoint of a concentration-inhibition curve. A higher IC50 goes with a need for much substance. Compound `COc1ccc(-c2[nH]c3ccc(C4CCN(C(C)CO)CC4)cc3c2C)cc1OC` (stereo not shown) [Example 43, 2-(4-(2-(3,4-dimethoxyphenyl)-3-methyl-1H-indol-5-yl)piperidin-1-yl)propan-1-ol] gave a 50% inhibitory concentration (IC50) of 1160 nM.
To `COc1ccc(-c2[nH]c3ccc(C4CCN(CC5CCCCN5C)CC4)cc3c2C)cc1OC` (stereo not shown) [Example 49, 2-(3,4-dimethoxyphenyl)-3-methyl-5-(1-((1-methylpiperidin-2-yl)methyl)piperidin-4-yl)-1H-indole] belongs 1360 nM; to `CCN1CCCC(N2CCC(c3ccc4[nH]c(-c5ccc(OC)c(OC)c5)c(C)c4c3)CC2)CC1` (stereo not shown) [Example 97, 2-(3,4-dimethoxyphenyl)-5-(1-(1-ethylazepan-4-yl)piperidin-4-yl)-3-methyl-1H-indole], 931 nM.
The compound `COc1ccc(-c2[nH]c3ccc(C4CCN(C5CCN(CCC(F)(F)F)CC5)CC4)cc3c2C)cc1OC` [Example 50, 2-(3,4-dimethoxyphenyl)-3-methyl-5-(1′-(3,3,3-trifluoropropyl)-[1,4′-bipiperidin]-4-yl)-1H-indole] gave an IC50 of 1090 nM. The IC50 values of the last two compounds are within 1.5-fold of each other.
In turn, `COc1ccc(-c2[nH]c3ccc(C4CCN(C5CCN(CC6CC6)CC5)CC4)cc3c2C)cc1OC` [Example 3, 5-(1′-(cyclopropylmethyl)-[1,4′-bipiperidin]-4-yl)-2-(3,4-dimethoxyphenyl)-3-methyl-1H-indole] registered an IC50 of 339 nM.
To `COc1ccc(-c2[nH]c3ccc(C4CCN(C5CCN(C(C)C)CC5)CC4)cc3c2CC(F)(F)F)cc1OC` [Example 412, 2-(3,4-dimethoxyphenyl)-5-(1′-isopropyl-[1,4′-bipiperidin]-4-yl)-3-(2,2,2-trifluoroethyl)-1H-indole] belongs 19 nM; to `COc1ccc(-c2[nH]c3ccc(C4CCN(C5CCCN(CC6CC6)CC5)CC4)cc3c2C)cc1OC` (stereo not shown) [Example 94, 5-(1-(1-(cyclopropylmethyl)azepan-4-yl)piperidin-4-yl)-2-(3,4-dimethoxyphenyl)-3-methyl-1H-indole], 1770 nM.
`COc1ccc(-c2[nH]c3ccc(C4CCN(C(=O)CN5CCCN(C)CC5)CC4)cc3c2C)cc1OC` [Example 410, 1-(4-(2-(3,4-dimethoxyphenyl)-3-methyl-1H-indol-5-yl)piperidin-1-yl)-2-(4-methyl-1,4-diazepan-1-yl)ethan-1-one] gave an IC50 of 3860 nM.
To `COc1ccc(-c2[nH]c3ccc(C4CCN(C5CCN(C6CCCC6)CC5)CC4)cc3c2C)cc1OC` [Example 62, 5-(1′-cyclopentyl-[1,4′-bipiperidin]-4-yl)-2-(3,4-dimethoxyphenyl)-3-methyl-1H-indole] belongs 225 nM; to `COc1ccc(-c2[nH]c3ccc(C4CCN(C5CCN(Cc6ccco6)CC5)CC4)cc3c2C)cc1OC` [Example 76, 2-(3,4-dimethoxyphenyl)-5-(1′-(furan-2-ylmethyl)-[1,4′-bipiperidin]-4-yl)-3-methyl-1H-indole], 147 nM.
With `COc1ccc(-c2[nH]c3ccc(C4CCN(C5CCN(C6CCC(O)CC6)CC5)CC4)cc3c2C)cc1OC` (stereo not shown) [Example 84, 4-(4-(2-(3,4-dimethoxyphenyl)-3-methyl-1H-indol-5-yl)-[1,4′-bipiperidin]-1′-yl)cyclohexan-1-ol] the figure was 490 nM.
With `CCN(CC)C(=O)C1CCCN(CC(=O)N2CCC(c3ccc4[nH]c(-c5ccc(OC)c(OC)c5)c(CC(F)(F)F)c4c3)CC2)C1` (stereo not shown) [Example 421, 1-(2-(4-(2-(3,4-dimethoxyphenyl)-3-(2,2,2-trifluoroethyl)-1H-indol-5-yl)piperidin-1-yl)-2-oxoethyl)-N,N-diethylpiperidine-3-carboxamide] the figure was 114 nM.
Regarding `COc1ccc(-c2[nH]c3ccc(C4CCN(C(=O)CN5CCCC(C(=O)N(C)C)C5)CC4)cc3c2CC(F)(F)F)cc1OC` (stereo not shown) [Example 419, 1-(2-(4-(2-(3,4-dimethoxyphenyl)-3-(2,2,2-trifluoroethyl)-1H-indol-5-yl)piperidin-1-yl)-2-oxoethyl)-N,N-dimethylpiperidine-3-carboxamide], half-maximal inhibition (IC50) was put at 31 nM.
With `CCN1CCC(N2CCC(c3ccc4[nH]c(-c5ccc(OC)c(OC)c5)c(C)c4c3)CC2)CC1` [Example 44, 2-(3,4-dimethoxyphenyl)-5-(1′-ethyl-[1,4′-bipiperidin]-4-yl)-3-methyl-1H-indole] the figure was 468 nM; with `CNCC(=O)N1CCC(c2ccc3[nH]c(-c4ccc(OC)c(OC)c4)c(CC(F)(F)F)c3c2)CC1` [Example 414, 1-(4-(2-(3,4-dimethoxyphenyl)-3-(2,2,2-trifluoroethyl)-1H-indol-5-yl)piperidin-1-yl)-2-(methylamino)ethanone], 58 nM.
To `C#CCCCCC(=O)NCCN1CCC(c2ccc3[nH]c(-c4ccc(OC)c(OC)c4)c(C(C)C)c3c2)CC1` [Example 411, N-(2-(4-(2-(3,4-dimethoxyphenyl)-3-isopropyl-1H-indol-5-yl)piperidin-1-yl)ethyl)hept-6-ynamide] belongs 63 nM.
To `COc1ccc(-c2[nH]c3ccc(C4CCN(C5CCN(CC6CCCC6)CC5)CC4)cc3c2C)cc1OC` [Example 65, 5-(1′-(cyclopentylmethyl)-[1,4′-bipiperidin]-4-yl)-2-(3,4-dimethoxyphenyl)-3-methyl-1H-indole] belongs 24000 nM; to `COc1ccc(-c2[nH]c3ccc(C4CCN(C5CCN(C6CCCCC6)CC5)CC4)cc3c2C)cc1OC` [Example 68, 5-(1′-cyclohexyl-[1,4′-bipiperidin]-4-yl)-2-(3,4-dimethoxyphenyl)-3-methyl-1H-indole], 288 nM; to `COc1ccc(-c2[nH]c3ccc(C4CCN(C5CCN(CC(C)(C)CO)CC5)CC4)cc3c2C)cc1OC` [Example 69, 3-(4-(2-(3,4-dimethoxyphenyl)-3-methyl-1H-indol-5-yl)-[1,4′-bipiperidin]-1′-yl)-2,2-dimethylpropan-1-ol], 238 nM.
`CCCCCN1CCC(N2CCC(c3ccc4[nH]c(-c5ccc(OC)c(OC)c5)c(C)c4c3)CC2)CC1` [Example 55, 2-(3,4-dimethoxyphenyl)-3-methyl-5-(1′-pentyl-[1,4′-bipiperidin]-4-yl)-1H-indole] had a concentration for half-maximal inhibition (IC50) of 86 nM.
With `COc1ccc(-c2[nH]c3ccc(C4CCN(C5CCN(CC(C)(C)C)CC5)CC4)cc3c2C)cc1OC` [Example 75, 2-(3,4-dimethoxyphenyl)-3-methyl-5-(1′-neopentyl-[1,4′-bipiperidin]-4-yl)-1H-indole] the figure was 734 nM; with `COc1ccc(-c2[nH]c3ccc(C4CCN(C5CCN(CC6CCOC6)CC5)CC4)cc3c2C)cc1OC` (stereo not shown) [Example 74], 1080 nM.
Take `COc1ccc(-c2[nH]c3ccc(C4CCN(C5CC(C)(C)NC(C)(C)C5)CC4)cc3c2C)cc1OC` [Example 48, 2-(3,4-dimethoxyphenyl)-3-methyl-5-(2′,2′,6′,6′-tetramethyl-[1,4′-bipiperidin]-4-yl)-1H-indole]: half-maximal inhibition (IC50) was put at 560 nM.
`COc1ccc(-c2[nH]c3ccc(C4CCN(C(=O)CNCCC(C)O)CC4)cc3c2C)cc1OC` (stereo not shown) [Example 406, 1-(4-(2-(3,4-dimethoxyphenyl)-3-methyl-1H-indol-5-yl)piperidin-1-yl)-2-((3-hydroxybutyl)amino)ethan-1-one] returned an IC50 of 1180 nM.
The compound `CNCCN1CCC(c2ccc3[nH]c(-c4ccc(OC)c(OC)c4)c(CC(F)(F)F)c3c2)CC1` [Example 413, 2-(4-(2-(3,4-dimethoxyphenyl)-3-(2,2,2-trifluoroethyl)-1H-indol-5-yl)piperidin-1-yl)-N-methylethanamine] came in with an IC50 of 83 nM.
The compound `COc1ccc(-c2[nH]c3ccc(C4CCN(C(=O)CN5CCC(N(C)C)CC5)CC4)cc3c2C)cc1OC` [Example 407, 1-(4-(2-(3,4-dimethoxyphenyl)-3-methyl-1H-indol-5-yl)piperidin-1-yl)-2-(4-(dimethylamino)piperidin-1-yl)ethan-1-one] returned a 50% inhibitory concentration (IC50) of 12300 nM.
To `COc1ccc(-c2[nH]c3ccc(C4CCN(C5CCN(Cc6cncn6C)CC5)CC4)cc3c2C)cc1OC` [Example 59, 2-(3,4-dimethoxyphenyl)-3-methyl-5-(1′-((1-methyl-1H-imidazol-5-yl)methyl)-[1,4′-bipiperidin]-4-yl)-1H-indole] belongs 477 nM; to `COc1ccc(-c2[nH]c3ccc(C4CCN(C5CCN(C6CCC(C)CC6)CC5)CC4)cc3c2C)cc1OC` (stereo not shown) [Example 80, 2-(3,4-dimethoxyphenyl)-3-methyl-5-(1′-(4-methylcyclohexyl)-[1,4′-bipiperidin]-4-yl)-1H-indole], 433 nM.
